Source: patent US20220249492A1, “ANTICANCER COMBINATION THERAPY” (Boehringer Ingelheim International GmbH, priority 2019, published 2022)

Tests used:
[1] = molecular target: T1, protein-protein interaction between SOS1 and KRAS G12D (Homo sapiens, UniProt Q07889); assay: KRAS::SOS1 AlphaScreen binding assay
T1 construct: GST-TEV-SOS1 (564-1049) is purchased from Viva Biotech Ltd; purchased Viva Biotech Ltd. (GST-TEV-SOS1); Xtal BioStructures, Inc. (K-Ras G12D) Lot #X129-110 (K-Ras)
T1 sequence (Q07889 564-1049): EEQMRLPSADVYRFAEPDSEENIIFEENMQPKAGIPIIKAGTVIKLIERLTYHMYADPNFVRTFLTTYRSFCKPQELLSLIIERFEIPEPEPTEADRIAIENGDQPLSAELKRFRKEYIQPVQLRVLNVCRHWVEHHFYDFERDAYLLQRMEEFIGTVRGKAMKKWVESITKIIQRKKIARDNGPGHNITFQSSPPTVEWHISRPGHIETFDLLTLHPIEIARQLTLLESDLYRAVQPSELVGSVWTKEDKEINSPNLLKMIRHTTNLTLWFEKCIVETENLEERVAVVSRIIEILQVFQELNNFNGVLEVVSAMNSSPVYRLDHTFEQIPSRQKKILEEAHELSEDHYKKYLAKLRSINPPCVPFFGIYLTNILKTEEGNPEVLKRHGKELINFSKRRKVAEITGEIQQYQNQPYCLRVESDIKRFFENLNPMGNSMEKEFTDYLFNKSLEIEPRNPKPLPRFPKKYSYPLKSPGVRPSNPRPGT
Procedure: KRAS::SOS1 AlphaScreen Binding Assay
Low IC50 values are indicative of high potency of the SOS1 inhibitors in this assay setting:
10 nM (final assay concentration) KRAS G12D, 10 μM (final assay concentration) GDP and 5 nM (final assay concentration) GST-SOS1 are mixed in assay buffer prior to use and kept at room temperature.
AlphaLISA Glutathione Acceptor Beads and AlphaScreen Streptavidin Donor Beads are mixed in assay buffer at a concentration of 10 μg/mL (final assay concentration) each prior to use and kept at room temperature.
Compounds are diluted to a final start concentration of 100 μM and are tested in duplicate. Assay-ready plates (ARPs) are generated using an Access Labcyte Workstation with a Labcyte Echo 550 or 555 accoustic dispenser. For compound a start concentration of 100 μM, 150 nL of compound solution is transferred per well in 11 concentrations in duplicate with serial 1:5 dilutions.
The assay is run using a fully automated robotic system in a darkened room below 100 Lux. 10 μL of KRAS::SOS1 GDP mix is added into columns 1-24 to the 150 nL of compound solution (final dilution in the assay 1:100, final DMSO concentration 1%).
After a 30 minute incubation time 5 μL of bead mix is added into columns 1-23. Plates are kept at room temperature in a darkened incubator. After a further 60 minute incubation, the signal is measured using a PerkinElmer Envision HTS Multilabel Reader using the AlphaScreen specifications from PerkinElmer. Each plate contains the following controls: • diluted DMSO+KRAS::SOS1 GDP mix+bead mix • diluted DMSO+KRAS::SOS1 GDP mix
IC50 values are calculated and analyzed using a 4 parametric logistic model.

[2] = Metabolic (microsomal) stability assay, human (HLM); assay type: in vitro ADME; conditions: human liver microsomes, 1 mg/mL protein, 1 μM test compound, 37° C.; predicted clearance as percent of liver blood flow
Procedure: (§1) Metabolic (Microsomal) Stability Assay:
(§2) The metabolic degradation of the test compound is assayed at 37° C. with pooled liver microsomes (mouse (MLM), rat (RLM) or human (HLM)). The final incubation volume of 74 μL per time point contains TRIS buffer (pH 7.5; 0.1 M), magnesium chloride (6.5 mM), microsomal protein (0.5 mg/mL for mouse/rat, 1 mg/mL for human specimens) and the test compound at a final concentration of 1 μM. Following a short preincubation period at 37° C., the reactions are initiated by addition of 8 μL beta-nicotinamide adenine dinucleotide phosphate, reduced form (NADPH, 10 mM) and terminated by transferring an aliquot into solvent after different time points. Additionally, the NADPH-independent degradation is monitored in incubations without NADPH, terminated at the last time point by addition of acetonitrile. The quenched incubations are pelleted by centrifugation (1811 g, 5 min). An aliquot of the supernatant is assayed by LC-MS/MS for the amount of parent compound.
(§3) In vitro intrinsic clearance (CLint,in vitro) is calculated from the time course of the disappearance of the test drug during the microsomal incubation. […] For better across species comparison the predicted clearance is expressed as percent of the liver blood flow [% QH] in the individual species. […]

[3] = Metabolic (microsomal) stability assay, rat (RLM); assay type: in vitro ADME; conditions: rat liver microsomes, 0.5 mg/mL protein, 1 μM test compound, 37° C.; predicted clearance as percent of liver blood flow
Procedure: as §1, §2, §3

[4] = Metabolic (microsomal) stability assay, mouse (MLM); assay type: in vitro ADME; conditions: mouse liver microsomes, 0.5 mg/mL protein, 1 μM test compound, 37° C.; predicted clearance as percent of liver blood flow
Procedure: as §1, §2, §3

[5] = molecular target: T2, CYP3A4 (Homo sapiens, UniProt P08684); assay: Time dependent inhibition of CYP3A4 assay (TDI 3A4); assay type: in vitro ADME; conditions: human liver microsomes, 25 uM test compound; hydroxy-midazolam formation after 30 min preincubation relative to 0 min preincubation
T2 construct: from tissue; host or cells: human liver microsomes
T2 sequence (P08684 whole entry): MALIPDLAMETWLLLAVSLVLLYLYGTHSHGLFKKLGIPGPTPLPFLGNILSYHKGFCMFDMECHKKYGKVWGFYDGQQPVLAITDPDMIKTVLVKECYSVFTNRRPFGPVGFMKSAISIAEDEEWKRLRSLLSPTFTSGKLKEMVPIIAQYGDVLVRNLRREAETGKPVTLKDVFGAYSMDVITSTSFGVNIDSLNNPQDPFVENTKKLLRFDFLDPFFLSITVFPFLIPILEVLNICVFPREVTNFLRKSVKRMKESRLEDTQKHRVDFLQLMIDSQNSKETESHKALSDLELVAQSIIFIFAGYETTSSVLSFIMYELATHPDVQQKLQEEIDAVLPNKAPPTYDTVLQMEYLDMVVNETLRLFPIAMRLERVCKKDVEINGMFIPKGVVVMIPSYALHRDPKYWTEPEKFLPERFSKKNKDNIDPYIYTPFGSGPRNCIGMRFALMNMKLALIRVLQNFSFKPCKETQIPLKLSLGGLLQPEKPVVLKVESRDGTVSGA
Procedure: Time dependent inhibition of CYP3A4 Assay (TDI 3A4):
The time dependent inhibition towards CYP3A4 is assayed in human liver microsomes (0.02 mg/mL) with midazolam (15 μM) as a substrate. The test compounds are preincubated in presence of NADPH with human liver microsomes (0.2 mg/mL) at a concentration of 25 uM for 0 min and 30 min. After preincubation, the incubate is diluted 1:10 and the substrate midazolam is added for the main incubation (15 min). The main incubation is quenched with acetonitrile and the formation of hydroxy-midazolam is quantified via LC/MS-MS. The formation of hydroxy-midazolam from the 30 min preincubation relative to the formation from the 0 min preincubation is used as a readout. Values of less than 100% mean that the substrate midazolam is metabolized to a lower extend upon 30 min preincubation compared to 0 min preincubation. In general low effects upon 30 min preincubation are desired (corresponding to values close to 100%)

[6] = tested on: ERK phosphorylation (pERK Thr202/Tyr204) in DLD-1 cells (KRAS G13D); assay: ERK phosphorylation assay (AlphaLISA SureFire Ultra p-ERK1/2) in DLD-1 cells; assay type: cell-based; conditions: Homo sapiens, 1 h compound incubation, EGF 50 ng/mL for 10 minutes
Procedure: ERK Phosphorylation Assay
Low IC50 values are indicative of high potency of the SOS1 inhibitors in this assay setting.
ERK phosphorylation assays are performed using the following human cell lines:
DLD-1 (ATCC CCL-221): human colon cancer with a KRAS G13D mutation;
DLD-1 cells (ATCC CCL-221) are seeded at 50,000 cells per well in/60 μL of RPMI with 10% FBS, non-essential amino acids, pyruvate and glutamax in Greiner TC 384 plates. The cells are incubated for 1 h at room temperature and then incubated overnight in an incubator at 37° C. and 5% CO2 in a humidified atmosphere. 60 nL compound solution (10 mM DMSO stock solution) is then added using a Labcyte Echo 550 device. After a 1 h incubation in the aforementioned incubator, 3 μL Epidermal Growth Factor (EGF, final concentration 50 ng/mL) is added. […] After 20 minutes of incubation at room temperature with shaking, 6 μL of each lysate sample is transferred to a 384-well Proxiplate and analyzed for pERK (Thr202/Tyr204) with the AlphaLISA SureFire Ultra pERK1/2 (Thr202/Tyr204) Assay Kit. 3 μL Acceptor Mix and 3 μL Donor Mix are added under subdued light and incubated for 2 h at room temperature in the dark, before the signal is measured on a Perkin Elmer Envision plate reader using 384 AlphaScreen settings for Proxiplates. […]

[7] = KRAS G12D::SOS1 AlphaScreen, measured without EDTA unless marked with an asterisk
[8] = KRAS::SOS1 AlphaScreen, KRAS G12D, IC50, tables 20 and 24

| IC50 [1, 7] [nM] | IC50 [1, 8] [nM] | IC50 [6] [nM] | Structure (SMILES) | HLM [% QH] [2] [% QH] | RLM [% QH] [3] [% QH] | MLM [% QH] [4] [% QH] | TDI 3A4 [%] [5] [%] |
| --- | --- | --- | --- | --- | --- | --- | --- |
| 11 | – | – | C[C@@H](Nc1ncnc2c(C3CC3)c(=O)n(C3(C)CC3)cc12)c1cccc(C(F)F)c1F [I-179] | – | – | – | – |
| 18 | – | – | Cc1nc(N[C@H](C)c2cccc(C(C)(F)F)c2)c2cn(C3(C(F)(F)F)CCOC3)c(=O)cc2n1 (stereo partly drawn) [I-129] | – | – | – | – |
| – | 18 | – | Cc1c(=O)n(C2(C)CC2)cc2c(N[C@H](C)c3cccc(C(F)(F)F)c3)ncnc12 [I-173] | – | – | – | 84 |
| – | 11 | 47 | Cc1nc(N[C@H](C)c2cccc(C(F)(F)F)c2C)c2cn([C@H]3C[C@H](F)C3)c(=O)cc2n1 [I-45] | – | – | – | – |
| – | 9 | – | C[C@@H](Nc1ncnc2cc(=O)n(C34CC(F)(C3)C4)cc12)c1cccc(C(C)(F)F)c1F [I-78] | <24 | <23 | <24 | – |

| Structure (SMILES) | IC50 [1, 7] [nM] | IC50 [1, 8] [nM] | IC50 [6] [nM] | HLM [% QH] [2] [% QH] | RLM [% QH] [3] [% QH] | MLM [% QH] [4] [% QH] | TDI 3A4 [%] [5] [%] |
| --- | --- | --- | --- | --- | --- | --- | --- |
| Cc1nc(N[C@H](C)c2cccc(C(F)(F)F)c2C)c2cn(C34CCN(CC3)CC4)c(=O)cc2n1 [I-128] | 2 | – | – | 29 | <23 | <24 | 98 |
